Reference: ChEMBL document CHEMBL1201862, “PubChem BioAssay data set” (2004)
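How tested: cells in 96-well plates exposed to compound for 48 hours at five concentrations. GI50 = concentration required for 50% inhibition of growth.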 Activity calls are given as the source filed them. Cut-off read from the data, not from the text of the source: active = GI50 up to about 1.1 µM and inactive = higher.

Assays:
Assay in all cases: NCI-60 cell line screen, 48 h
NCI-H23 = test system: NCI-H23
OVCAR-5 = test system: OVCAR-5
Malme-3M = test system: Malme-3M
RPMI-8226 = test system: RPMI-8226
HL-60 = test system: HL-60
U-251 = test system: U-251
786-0 = test system: 786-0
M19-MEL = test system: M19-MEL
MOLT-4 = test system: MOLT-4
SF-295 = test system: SF-295
IGROV-1 = test system: IGROV-1
HCC 2998 = test system: HCC 2998
M14 = test system: M14
UO-31 = test system: UO-31
UACC-62 = test system: UACC-62
LOX IMVI = test system: LOX IMVI

Measured: GI50

C[n+]1c2ccccc2c(NC(CCC(N)=O)C(=O)O)c2ccccc21 (stereo not given)
inactive: NCI-H23 > 100 µM | OVCAR-5 > 100 µM | Malme-3M > 100 µM | RPMI-8226 21 µM | HL-60 > 100 µM | U-251 > 100 µM | 786-0 > 100 µM | M19-MEL > 100 µM | MOLT-4 > 100 µM | SF-295 > 100 µM | IGROV-1 > 100 µM | HCC 2998 > 100 µM | M14 > 100 µM | UO-31 > 100 µM | UACC-62 > 100 µM

CCOC(=O)Cn1c2ccccc2c(=O)c2cc(C)c(C)c(C#N)c21
inactive: NCI-H23 > 100 µM | OVCAR-5 > 100 µM | Malme-3M > 100 µM | RPMI-8226 > 100 µM | HL-60 > 100 µM | U-251 > 100 µM | 786-0 > 100 µM | M19-MEL > 100 µM | MOLT-4 > 100 µM | LOX IMVI > 100 µM | SF-295 40.4 µM | IGROV-1 > 100 µM | HCC 2998 > 100 µM | UO-31 68.5 µM | UACC-62 > 100 µM

Nc1c2ccccc2nc2nccnc12
inactive: NCI-H23 > 100 µM | OVCAR-5 > 100 µM | Malme-3M > 100 µM | RPMI-8226 > 100 µM | HL-60 > 100 µM | U-251 > 100 µM | 786-0 > 100 µM | M19-MEL > 100 µM | MOLT-4 > 100 µM | LOX IMVI > 100 µM | SF-295 > 100 µM | IGROV-1 60.4 µM | HCC 2998 > 100 µM | M14 > 100 µM | UO-31 > 100 µM | UACC-62 > 100 µM

COc1cc(/C=C(\C#N)c2ccccc2)cc(OC)c1
inactive: NCI-H23 20.3 µM | OVCAR-5 55.1 µM | Malme-3M > 100 µM | RPMI-8226 35.6 µM | HL-60 24.3 µM | U-251 28.3 µM | 786-0 31.8 µM | M19-MEL 50 µM | MOLT-4 16.4 µM | LOX IMVI 22.1 µM | SF-295 21.9 µM | IGROV-1 71 µM | HCC 2998 67.6 µM | M14 33.8 µM | UO-31 29.6 µM | UACC-62 32.4 µM

CS/C(c1ccccc1)=[N+](/C)[O-]
inactive: NCI-H23 > 100 µM | OVCAR-5 > 100 µM | Malme-3M > 100 µM | RPMI-8226 > 56.2 µM | HL-60 > 100 µM | U-251 > 100 µM | 786-0 > 100 µM | M19-MEL > 100 µM | MOLT-4 > 100 µM | LOX IMVI > 43.3 µM | SF-295 > 100 µM | IGROV-1 > 100 µM | HCC 2998 > 100 µM | M14 > 100 µM | UO-31 > 100 µM | UACC-62 > 100 µM

Brc1cc2c(cc1Br)CN(c1ccccc1)C2
inactive: NCI-H23 > 100 µM | OVCAR-5 > 100 µM | Malme-3M > 100 µM | RPMI-8226 > 100 µM | HL-60 > 100 µM | U-251 > 100 µM | 786-0 > 100 µM | M19-MEL > 100 µM | MOLT-4 > 100 µM | LOX IMVI > 100 µM | SF-295 > 100 µM | IGROV-1 > 100 µM | HCC 2998 > 100 µM | M14 > 100 µM | UO-31 > 100 µM | UACC-62 > 100 µM

CCc1cc2c(O)c(c1)Cc1cc(CC)cc(c1O)Cc1cc(CC)cc(c1O)Cc1cc(CC)cc(c1O)Cc1cc(CC)cc(c1O)Cc1cc(CC)cc(c1O)Cc1cc(CC)cc(c1O)C2
inactive: NCI-H23 > 100 µM | OVCAR-5 > 100 µM | Malme-3M > 100 µM | RPMI-8226 > 100 µM | HL-60 > 100 µM | U-251 62.8 µM | 786-0 > 100 µM | M19-MEL > 100 µM | MOLT-4 78.2 µM | SF-295 > 100 µM | IGROV-1 > 100 µM | HCC 2998 > 100 µM | M14 > 100 µM | UO-31 > 100 µM | UACC-62 > 100 µM

COC(=O)Cc1nc2ccccc2o1
inactive: NCI-H23 > 100 µM | OVCAR-5 45.2 µM | Malme-3M > 100 µM | RPMI-8226 17.8 µM | HL-60 12.5 µM | U-251 83.8 µM | 786-0 > 100 µM | M19-MEL 30.5 µM | MOLT-4 67.9 µM | SF-295 41.1 µM | IGROV-1 > 100 µM | HCC 2998 88.5 µM | M14 51.6 µM | UO-31 > 100 µM | UACC-62 20.2 µM

Brc1ccc2c(C3CN[C@@H](c4c[nH]c5cc(Br)ccc45)CN3)c[nH]c2c1 (stereo not given in full)
inactive: NCI-H23 2.34 µM | OVCAR-5 2.48 µM | Malme-3M 12.2 µM | RPMI-8226 1.89 µM | HL-60 2.42 µM | U-251 5.37 µM | 786-0 2.89 µM | M19-MEL 6.78 µM | MOLT-4 1.44 µM | LOX IMVI 2.61 µM | SF-295 3.4 µM | IGROV-1 5.65 µM | HCC 2998 2 µM | M14 2.55 µM | UO-31 5.68 µM | UACC-62 4.37 µM
